According to ChEMBL document CHEMBL5113402, “Inhibition of cytochrome P450 monooxygenase-catalyzed oxylipin formation by flavonoids: Evaluation of structure-activity relationship towards CYP4F2-selective inhibitors” (Eur J Med Chem, 2022):

How the values were obtained:
[1] = Drug recovery in human liver microsomes assessed as NADPH-fortified oxidative metabolism recovery in presence of arachidonic acid incubated for 30 mins; format: ADME, Microsome; conditions: read-out: Drug recovery
[2] = Octanol-water partition coefficient, logP of the compound incubated for 1 hr by HPLC analysis; format: physicochemical
[3] = target: T1, CYP450 (20-HETE formation) (Homo sapiens, UniProt P04798+P05177+P05181+P08684+P10632+P10635+P11509+P11712+P13584+P20813+P20815+P20853+P24462+P24903+P33260+P33261+P51589+P78329+P98187+Q02928+Q08477+Q16678+Q16696+Q5TCH4+Q6VVX0+Q7Z449+Q8TAV3+Q96SQ9+Q9HB55); experiment: Inhibition of CYP450 in human HCT-116 cells assessed as 20-HETE formation in presence of arachidonic acid incubated for 15 mins by multi-enzyme assay based LC-MS/MS analysis; format: ADME, cell-based; conditions: probe arachidonic acid
[4] = Inhibition of CYP450 in B6C3F1 mouse liver microsomes assessed as inhibition of 20-HETE formation in presence of arachidonic acid and NADPH by multi-enzyme assay based LC-MS/MS analysis relative to control; format: ADME, Microsome
[5] = target: T2, CYP2J2 (Homo sapiens, UniProt P51589); experiment: Inhibition of recombinant human CYP2J2 expressed in baculovirus-infected insect cells at 50 uM incubated for 15 mins in presence of arachidonic acid and NADPH by jump-dilution assay relative to control; format: ADME; conditions: probe arachidonic acid
T2 sequence (P51589 whole entry): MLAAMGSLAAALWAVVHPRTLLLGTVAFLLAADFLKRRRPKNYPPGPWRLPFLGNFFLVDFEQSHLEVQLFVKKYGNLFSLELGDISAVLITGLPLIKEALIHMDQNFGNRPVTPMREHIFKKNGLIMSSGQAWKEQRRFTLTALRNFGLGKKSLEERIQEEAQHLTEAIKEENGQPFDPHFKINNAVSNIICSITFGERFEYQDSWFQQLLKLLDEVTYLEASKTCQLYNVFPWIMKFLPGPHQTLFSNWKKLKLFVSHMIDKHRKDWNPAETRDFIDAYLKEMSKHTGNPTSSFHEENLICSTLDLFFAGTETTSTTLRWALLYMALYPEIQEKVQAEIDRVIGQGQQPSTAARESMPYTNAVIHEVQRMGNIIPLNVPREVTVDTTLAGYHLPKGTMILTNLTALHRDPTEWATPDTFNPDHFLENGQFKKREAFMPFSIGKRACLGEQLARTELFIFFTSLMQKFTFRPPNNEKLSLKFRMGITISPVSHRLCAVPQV

[6] = target: T1, CYP450 (20-HETE formation); experiment: Inhibition of CYP450 in human liver microsomes assessed as inhibition of 20-HETE formation in presence of arachidonic acid and NADPH by multi-enzyme assay based LC-MS/MS analysis; format: ADME, Microsome; conditions: probe arachidonic acid
[7] = Inhibition of CYP450 in Sprague-Dawley rat liver microsomes assessed as inhibition of 20-HETE formation in presence of arachidonic acid and NADPH by multi-enzyme assay based LC-MS/MS analysis relative to control; format: ADME, Microsome
[8] = target: T3, Cytochrome P450 4A11 (Homo sapiens, UniProt Q02928); experiment: Inhibition of recombinant human CYP4A11 expressed in baculovirus-infected insect cells in presence of arachidonic acid and NADPH incubated for 15 mins by jump-dilution assay relative to control; format: ADME
T3 sequence (Q02928 whole entry): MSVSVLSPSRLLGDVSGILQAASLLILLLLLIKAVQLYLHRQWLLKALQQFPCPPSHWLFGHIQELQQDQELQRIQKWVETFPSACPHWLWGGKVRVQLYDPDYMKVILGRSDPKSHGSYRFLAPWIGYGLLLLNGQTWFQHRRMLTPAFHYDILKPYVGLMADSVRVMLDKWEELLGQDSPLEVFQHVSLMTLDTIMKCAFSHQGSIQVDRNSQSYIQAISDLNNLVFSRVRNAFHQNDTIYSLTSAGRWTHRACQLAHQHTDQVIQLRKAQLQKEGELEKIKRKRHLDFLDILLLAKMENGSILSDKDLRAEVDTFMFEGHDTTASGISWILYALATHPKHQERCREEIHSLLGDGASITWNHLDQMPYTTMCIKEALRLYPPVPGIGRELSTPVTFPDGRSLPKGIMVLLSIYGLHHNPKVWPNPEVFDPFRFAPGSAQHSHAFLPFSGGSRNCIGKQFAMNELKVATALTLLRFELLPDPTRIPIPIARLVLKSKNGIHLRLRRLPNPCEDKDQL

[9] = species on record: Homo sapiens; experiment: Selectivity index, log ratio of Inhibition of CYP450 in human liver microsomes assessed as inhibition of EpETrE formation in presence of arachidonic acid to Inhibition of CYP450 in human liver microsomes assessed as inhibition of 20-HETE formation in presence of arachidonic acid
[10] = Inhibition of CYP450 in B6C3F1 mouse liver microsomes assessed as inhibition of 20-HETE formation in presence of arachidonic acid and NADPH by multi-enzyme assay based LC-MS/MS analysis; format: ADME, Microsome

- remaining at 0.5 h [1]: 87%
- logP at 1 h [2]: 4.06
- IC50 at 15 min [3]: 1.1 µM
- IC50 [4]: 0.71 µM
- inhibition at 0.25 h, 50 µM [5]: < 25%
- IC50 [6]: 4.9 µM
- IC50 [7]: 1.4 µM
- IC50 [8]: 50 µM
- log(ratio) [9]: 0.58
- IC50 [10]: 7.6 µM
Compound: O=c1cc(-c2ccc(C(F)(F)F)cc2)oc2ccccc12
